Test: xn = mol fraction of the nth substance listed
Conditions: 101 kPa

CC[n+]1ccn(C)c1.O=S(=O)([O-])C(F)(F)F + O
speed of sound [m/s]
Conditions | 278.15 K | 288.15 K | 298.15 K | 308.15 K | 318.15 K | 328.15 K | 338.15 K
x1 = 0.0178 | 1510.5 | 1529 | 1541.8 | 1549.8 | – | 1553.1 | 1548.9
x2 = 0.0502 | 1482.9 | 1459.7 | 1437.1 | 1415 | 1393.3 | 1371.8 | –
x2 = 0.1058 | 1484.8 | 1461.7 | 1439.2 | – | 1395.5 | – | 1352.9
x2 = 0.1504 | 1486.6 | – | 1441 | 1418.9 | 1397 | – | 1354.2
x2 = 0.249 | – | 1468.2 | 1445.9 | 1424 | 1402.3 | 1380.8 | 1359.5
x2 = 0.3004 | 1494 | 1471.3 | 1449.1 | 1427.2 | – | – | –
x2 = 0.3524 | – | 1474.8 | 1452.7 | 1430.8 | 1409.2 | – | 1366.2
x2 = 0.3961 | – | 1478.3 | 1456.2 | 1434.4 | 1412.7 | 1391.2 | 1369.7
x2 = 0.4505 | 1505.3 | 1483 | – | 1439.3 | 1417.7 | 1396.2 | 1374.7
x2 = 0.5024 | 1510.7 | – | 1466.7 | – | 1423.4 | 1401.7 | 1380
x2 = 0.5502 | 1516.2 | 1494.3 | 1472.6 | 1451 | 1429.3 | – | –
x2 = 0.6 | – | 1501.1 | 1479.6 | 1458.1 | – | 1414.9 | 1393
x2 = 0.6502 | 1530.5 | 1509.2 | 1488 | 1466.7 | 1445.3 | 1423.6 | 1401.7
x2 = 0.702 | 1539.8 | 1519.2 | 1498.4 | – | 1456.1 | 1434.6 | 1412.9
x2 = 0.7493 | 1549 | 1529.2 | 1509.1 | – | 1467.8 | 1446.5 | 1424.7
x2 = 0.7998 | – | – | 1522.5 | 1503.1 | 1483 | 1462.2 | 1440.7
x2 = 0.8499 | 1569.5 | 1554.1 | 1537.6 | 1520.1 | 1501.5 | 1482 | –
x2 = 0.8996 | – | 1564.9 | 1552.9 | 1539.1 | 1523.7 | 1506.7 | 1488.2
x2 = 0.9498 | – | 1563.7 | 1561.1 | 1555.7 | 1547.7 | 1537.1 | 1524.2

CC[n+]1ccn(C)c1.O=S(=O)([O-])C(F)(F)F + CCO
speed of sound [m/s]
Conditions | 278.15 K | 288.15 K | 298.15 K | 308.15 K | 318.15 K | 328.15 K
x2 = 0.0508 | 1475.9 | 1452.2 | 1429.4 | 1407 | 1385.2 | 1363.9
x2 = 0.0983 | – | – | 1422.7 | 1400.4 | – | 1357.6
x2 = 0.1483 | 1461.9 | 1438.3 | – | 1393.1 | 1371.1 | 1349.8
x2 = 0.198 | – | 1430.7 | – | – | – | –
x2 = 0.3072 | 1435.9 | – | 1389.3 | 1366.7 | 1344.6 | –
x2 = 0.4068 | 1416.2 | 1392.4 | 1369.2 | 1346.4 | 1323.9 | 1301.8
x2 = 0.4985 | 1394.8 | 1370.6 | 1346.9 | 1323.6 | – | –
x2 = 0.5999 | 1366.8 | – | 1318 | 1294.2 | – | 1247.7
x2 = 0.6991 | – | 1308.5 | 1283.7 | 1259.2 | 1235.1 | 1211.2
x2 = 0.8001 | – | – | 1241.7 | 1215.7 | 1189.9 | 1164.3
x2 = 0.8497 | 1273.5 | 1245.6 | 1218.2 | – | 1164.7 | 1138.4
x2 = 0.9 | 1252.7 | 1223.1 | – | – | 1137.5 | –
x2 = 0.9501 | 1233 | 1201.1 | 1170.1 | 1139.4 | 1109.1 | 1079.2
